Assay results published in patent publication US10294229B2, “Heteroaryl substituted aminopyridine compounds” (BRISTOL-MYERS SQUIBB COMPANY, priority 2015, dated 2019).

Biological target: IRAK4 (Homo sapiens (Human), UniProt Q9NWZ3)
Assay: IRAK4 Inhibition Assay
Assay type: biochemical
Details: ATP 500 μM; IRAK4 0.6 nM
Summary of the method: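 Mobility-shift kinase assay: 0.6 nM IRAK4, 500 μM ATP, 1.5 μM fluorescent peptide, 60 min, room temperature. Percent inhibition was normalised between enzyme-free and DMSO-only wells.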

Sequence of IRAK4 (Q9NWZ3 whole entry, species assumed): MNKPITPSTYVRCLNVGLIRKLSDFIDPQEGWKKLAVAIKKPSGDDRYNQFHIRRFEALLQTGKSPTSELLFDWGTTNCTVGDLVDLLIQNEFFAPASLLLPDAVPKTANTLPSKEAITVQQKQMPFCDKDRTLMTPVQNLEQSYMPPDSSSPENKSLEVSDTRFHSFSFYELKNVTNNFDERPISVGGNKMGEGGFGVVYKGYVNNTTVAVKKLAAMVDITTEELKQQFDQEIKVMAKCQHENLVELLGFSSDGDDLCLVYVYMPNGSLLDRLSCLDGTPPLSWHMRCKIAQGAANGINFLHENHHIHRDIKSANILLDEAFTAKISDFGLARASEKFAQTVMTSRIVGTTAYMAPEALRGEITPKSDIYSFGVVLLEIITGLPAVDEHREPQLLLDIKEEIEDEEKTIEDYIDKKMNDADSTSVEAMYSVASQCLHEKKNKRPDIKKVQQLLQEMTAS

Row | Structure (SMILES) | IC50
1 | CCCc1cn(-c2cnc(-n3ncc4cc(C#N)cnc43)cc2N[C@H](C)CO)nn1 [Example 272, (R)-1-(4-((1-hydroxypropan-2-yl)amino)-5-(4-propyl-1H-1,2,3-triazol-1-yl)pyridin-2-yl)-1H-pyrazolo[3,4-b]pyridine-5-carbonitrile] | 529 nM
2 | CNCc1cn(-c2cnc(-n3ncc4cc(C#N)cnc43)cc2NC(C)C)nn1 [Example 314, 1-(4-(isopropylamino)-5-(4-((methylamino)methyl)-1H-1,2,3-triazol-1-yl)pyridin-2-yl)-1H-pyrazolo[3,4-b]pyridine-5-carbonitrile] | 93 nM
3 | CC(C)Nc1cc(-n2ncc3cc(C#N)cnc32)ncc1-n1ccc(-c2cccnc2)n1 [Example 249, 1-(4-(isopropylamino)-5-(3-(pyridin-3-yl)-1H-pyrazol-1-yl)pyridin-2-yl)-1H-pyrazolo[3,4-b]pyridine-5-carbonitrile] | 47 nM
4 | CC(C)Nc1cc(-n2ncc3cc(C#N)cnc32)ncc1-n1cc(-c2cccnc2)nn1 [Example 299, 1-(4-(isopropylamino)-5-(4-(pyridin-3-yl)-1H-1,2,3-triazol-1-yl)pyridin-2-yl)-1H-pyrazolo[3,4-b]pyridine-5-carbonitrile] | 44 nM
5 | CC(C)Nc1cc(-n2ncc3cncnc32)ncc1-c1cnn(CC(F)(F)F)c1 [Example 262, N-isopropyl-2-(1H-pyrazolo[3,4-d]pyrimidin-1-yl)-5-(1-(2,2,2-trifluoroethyl)-1H-pyrazol-4-yl)pyridin-4-amine] | 288 nM
6 | CC(C)Nc1cc(-n2ncc3cc(C#N)cnc32)ncc1-n1ccc(CC#N)n1 [Example 250, 1-(5-(3-(cyanomethyl)-1H-pyrazol-1-yl)-4-(isopropylamino)pyridin-2-yl)-1H-pyrazolo[3,4-b]pyridine-5-carbonitrile] | 196 nM
7 | CC(C)Nc1cc(-n2ncc3cc(C#N)cnc32)ncc1-c1cnn(CC(F)(F)F)c1 [Example 255, 1-(4-(isopropylamino)-5-(1-(2,2,2-trifluoroethyl)-1H-pyrazol-4-yl)pyridin-2-yl)-1H-pyrazolo[3,4-b]pyridine-5-carbonitrile] | 39 nM
8 | CC(C)Nc1cc(-n2ncc3cc(C#N)cnc32)ncc1-c1cn(-c2cccc(O)c2)nn1 [Example 103, 1-(5-(1-(3-hydroxyphenyl)-1H-1,2,3-triazol-4-yl)-4-(isopropylamino)pyridin-2-yl)-1H-pyrazolo[3,4-b]pyridine-5-carbonitrile] | 172 nM
9 | CC(C)Nc1cc(-n2ncc3cc(C#N)cnc32)ncc1-c1cn(CC2(O)CCN(C(=O)OC(C)(C)C)CC2)nn1 [Example 132, tert-butyl 4-((4-(6-(5-cyano-1H-pyrazolo[3,4-b]pyridin-1-yl)-4-(isopropylamino)pyridin-3-yl)-1H-1,2,3-triazol-1-yl)methyl)-4-hydroxypiperidine-1-carboxylate] | 51 nM
10 | CCNc1cc(-n2cnc3cc(C#N)cnc32)ncc1-c1cn(C[C@H](C)O)nn1 [Example 72, (S)-3-(4-(ethylamino)-5-(1-(2-hydroxypropyl)-1H-1,2,3-triazol-4-yl)pyridin-2-yl)-3H-imidazo [4,5-b]pyridine-6-carbonitrile] | 52 nM
11 | COCc1cn(-c2cnc(-n3ncc4cc(C#N)cnc43)cc2NC(C)C)nn1 [Example 267, 1-(4-(isopropylamino)-5-(4-(methoxymethyl)-1H-1,2,3-triazol-1-yl)pyridin-2-yl)-1H-pyrazolo [3,4-b]pyridine-5-carbonitrile] | 83 nM
12 | CC(C)Nc1cc(-n2cnc3cc(C#N)cnc32)ncc1-c1cn(C(C)(C)C)nn1 [Example 23, 3-(5-(1-(tert-butyl)-1H-1,2,3-triazol-4-yl)-4-(isopropylamino)pyridin-2-yl)-3H-imidazo[4,5-b]pyridine-6-carbonitrile] | 96 nM
13 | CC(C)Nc1cc(-n2ncc3cc(C#N)cnc32)ncc1-c1cn(-c2cccnc2)cn1 [Example 224, 1-(4-(isopropylamino)-5-(1-(pyridin-3-yl)-1H-imidazol-4-yl)pyridin-2-yl)-1H-pyrazolo[3,4-b]pyridine-5-carbonitrile] | 87 nM
14 | Cc1ccn(-c2cnc(-n3ncc4cc(C#N)cnc43)cc2NC(C)C)n1 [Example 246, 1-(4-(isopropylamino)-5-(3-methyl-1H-pyrazol-1-yl)pyridin-2-yl)-1H-pyrazolo[3,4-b] pyridine-5-carbonitrile] | 336 nM
15 | CC(C)Nc1cc(-n2ncc3cc(C#N)cnc32)ncc1-c1cnn(CC2COC2)c1 [Example 254, 1-(4-(isopropylamino)-5-(1-(oxetan-3-ylmethyl)-1H-pyrazol-4-yl)pyridin-2-yl)-1H-pyrazolo[3,4-b]pyridine-5-carbonitrile] | 190 nM

The next lines start with the values.

Row | IC50 | Structure (SMILES)
16 | 5 nM | CCCn1cc(-c2cnc(-n3cnc4cc(C#N)cnc43)cc2NC2CCOCC2)nn1 [Example 50, 3-(5-(1-propyl-1H-1,2,3-triazol-4-yl)-4-((tetrahydro-2H-pyran-4-yl)amino)pyridin-2-yl)-3H-imidazo[4,5-b]pyridine-6-carbonitrile]
17 | 13 nM | CC(C)Nc1cc(-n2ncc3cc(C#N)cnc32)ncc1-c1cn(-c2cccnc2C#N)nn1 [Example 111, 1-(5-(1-(2-cyanopyridin-3-yl)-1H-1,2,3-triazol-4-yl)-4-(isopropylamino)pyridin-2-yl)-1H-pyrazolo[3,4-b]pyridine-5-carbonitrile]
18 | 29 nM | CCn1cnc(-c2cnc(-n3ncc4cc(C#N)cnc43)cc2NC(C)C)c1 [Example 227, 1-(5-(1-ethyl-1H-imidazol-4-yl)-4-(isopropylamino)pyridin-2-yl)-1H-pyrazolo[3,4-b]pyridine-5-carbonitrile]
19 | 6 nM | CCCn1cc(-c2cnc(-n3cnc4cc(C#N)cnc43)cc2NC2CC2)nn1 [Example 43, 3-(4-(cyclopropylamino)-5-(1-propyl-1H-1,2,3-triazol-4-yl)pyridin-2-yl)-3H-imidazo[4,5-b]pyridine-6-carbonitrile]
20 | 20 nM | CC(C)Nc1cc(-n2ncc3cc(C#N)cnc32)ncc1-c1cn([C@H]2CCN(C(=O)c3cccnc3)C[C@H]2O)nn1 [Example 184, 1-(5-(1-((3R,4S)-3-hydroxy-1-nicotinoylpiperidin-4-yl)-1H-1,2,3-triazol-4-yl)-4-(isopropylamino)pyridin-2-yl)-1H-pyrazolo[3,4-b]pyridine-5-carbonitrile]
21 | 33 nM | CC(C)Nc1cc(-n2ncc3cc(C#N)cnc32)ncc1-c1cn(-c2ccccc2)nn1 [Example 115, 1-(4-(isopropylamino)-5-(1-phenyl-1H-1,2,3-triazol-4-yl)pyridin-2-yl)-1H-pyrazolo[3,4-b]pyridine-5-carbonitrile]
22 | 26 nM | CC(C)Nc1cc(-n2cnc3cc(C#N)cnc32)ncc1-c1cn(CC(O)Cc2ccccc2)nn1 (single isomer, unassigned) [Example 79, 3-(5-(1-(2-hydroxy-3-phenylpropyl)-1H-1,2,3-triazol-4-yl)-4-(isopropylamino)pyridin-2-yl)-3H-imidazo[4,5-b]pyridine-6-carbonitrile]
23 | 32 nM | CC(C)Nc1cc(-n2cnc3cc(C#N)cnc32)ncc1-c1cn(CC(C)(C)O)nn1 [Example 67, 3-(5-(1-(2-hydroxy-2-methylpropyl)-1H-1,2,3-triazol-4-yl)-4-(isopropylamino)pyridin-2-yl)-3H-imidazo[4,5-b]pyridine-6-carbonitrile]
24 | 3 nM | CC(C)(O)CCc1cn(-c2cnc(-n3ncc4cc(C#N)cnc43)cc2N[C@H]2CC[C@H](O)CC2)nn1 [Example 385, 1-(5-(4-(3-hydroxy-3-methylbutyl)-1H-1,2,3-triazol-1-yl)-4-(((1 s,4s)-4-hydroxycyclohexyl)amino)pyridin-2-yl)-1H-pyrazolo[3,4-b]pyridine-5-carbonitrile]
25 | 2 nM | CC(C)(O)CCc1cn(-c2cnc(-n3ncc4cc(C#N)cnc43)cc2N[C@H]2CC[C@@H](F)CC2)nn1 [Example 374, 1-(4-(((1r,4r)-4-fluorocyclohexyl)amino)-5-(4-(3-hydroxy-3-methylbutyl)-1H-1,2,3-triazol-1-yl)pyridin-2-yl)-1H-pyrazolo[3,4-b]pyridine-5-carbonitrile]
26 | 16 nM | CC(C)Nc1cc(-n2ncc3cc(C#N)cnc32)ncc1-c1cn(CC#N)nn1 [Example 47, 1-(5-(1-(cyanomethyl)-1H-1,2,3-triazol-4-yl)-4-(isopropylamino)pyridin-2-yl)-1H-pyrazolo[3,4-b]pyridine-5-carbonitrile]
27 | 28 nM | CC(C)Nc1cc(-n2ncc3cc(C#N)cnc32)ncc1-n1cc(-c2ccccc2)nn1 [Example 297, 1-(4-(isopropylamino)-5-(4-phenyl-1H-1,2,3-triazol-1-yl)pyridin-2-yl)-1H-pyrazolo[3,4-b]pyridine-5-carbonitrile]
28 | 38 nM | CC(O)Cc1cn(-c2cnc(-n3ncc4cc(C#N)cnc43)cc2NC(C)C)nn1 (stereo not shown) [Example 268, 1-(5-(4-(2-hydroxypropyl)-1H-1,2,3-triazol-1-yl)-4-(isopropylamino)pyridin-2-yl)-1H-pyrazolo[3,4-b]pyridine-5-carbonitrile]
29 | 2 nM | CC(=O)N[C@H]1CC[C@H](c2cc(-c3cnc(-n4ncc5cc(C#N)cnc54)cc3NC(C)C)on2)CC1 [Example 410, N-((1s,4s)-4-(5-(6-(5-cyano-1H-pyrazolo[3,4-b]pyridin-1-yl)-4-(isopropylamino)pyridin-3-yl)isoxazol-3-yl)cyclohexyl)acetamide]
30 | 14 nM | CC(C)Nc1cc(-n2cnc3cc(C#N)cnc32)ncc1-c1cn(C[C@@H](C)O)nn1 [Example 68, (R)-3-(5-(1-(2-hydroxypropyl)-1H-1,2,3-triazol-4-yl)-4-(isopropylamino)pyridin-2-yl)-3H-imidazo[4,5-b]pyridine-6-carbonitrile]
31 | 36 nM | CNC(=O)Cn1cnc(-c2cnc(-n3ncc4cc(C#N)cnc43)cc2NC(C)C)c1 [Example 238, 2-(4-(6-(5-cyano-1H-pyrazolo[3,4-b]pyridin-1-yl)-4-(isopropylamino)pyridin-3-yl)-1H-imidazol-1-yl)-N-methylacetamide]
